Publication PMC10298982, “Stability Characterization of the Novel Anti-Cancer HM-10/10 HDL-Mimetic Peptide” (International Journal of Molecular Sciences, 2023)
Several values for one entry are separate records, joined by “and”; a condition that tells them apart may be missing. Equal values may be shown once. Ends that are not written are not given here.

What was measured:
[1] = Metabolic stability in cynomolgus monkey liver microsomes; type: in vitro ADME; details: for CLint scaled: cynomolgus monkey, microsomes, Cynomolgus monkey liver microsomes 0.5 mg protein/mL, 2 μM
[2] = Protein binding in cynomolgus monkey plasma (ultracentrifugation); details: plasma (K2EDTA), pH 7.4
[3] = system: cynomolgus monkey plasma proteins; test: as above; details: Cynomolgus monkey plasma (K2EDTA); 2 μM; 2.5 h at 37 °C
CYP2B6 = molecular target: T1, CYP2B6 (Homo sapiens, UniProt P20813); details: microsomes
T1 sequence (P20813 1-491): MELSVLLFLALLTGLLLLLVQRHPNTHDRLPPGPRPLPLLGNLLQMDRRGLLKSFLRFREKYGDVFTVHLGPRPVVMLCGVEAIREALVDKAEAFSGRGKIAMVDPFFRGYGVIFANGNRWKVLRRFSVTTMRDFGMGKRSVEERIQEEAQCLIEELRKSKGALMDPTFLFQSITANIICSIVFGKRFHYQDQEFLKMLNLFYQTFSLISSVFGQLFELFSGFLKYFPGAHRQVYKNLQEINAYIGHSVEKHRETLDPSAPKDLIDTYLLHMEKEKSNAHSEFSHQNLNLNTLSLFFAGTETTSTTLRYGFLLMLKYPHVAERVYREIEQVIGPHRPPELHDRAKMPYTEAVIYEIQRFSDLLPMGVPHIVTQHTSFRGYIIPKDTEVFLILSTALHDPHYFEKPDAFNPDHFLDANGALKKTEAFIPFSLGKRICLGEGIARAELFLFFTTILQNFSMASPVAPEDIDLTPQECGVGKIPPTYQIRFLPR

[4] = Metabolic stability in human liver microsomes; type: in vitro ADME
[5] = Metabolic stability in cryopreserved Sprague-Dawley rat hepatocytes; type: in vitro ADME; details: Sprague-Dawley rat hepatocytes 0.5 million cells/mL; for CLint scaled: rat, hepatocytes, 2 μM
[6] = Stability in simulated gastric fluid (SGF); type: in vitro ADME; details: SGF pH 1.3
Protocol: When developing any potentially oral-route pharmaceutical agent, the denaturing and pepsin-rich environment of the stomach must be considered. The stability of HM-10/10 was tested in simulated gastric fluid (SGF) and simulated intestinal fluid (SIF) over 120 min. […] Samples were tested at 2 μM.
For the HM-10/10 stability assay in simulated gastric and intestinal fluids, propantheline was used to confirm retention time and carbutamide was used as the internal standard for calculations.

human plasma proteins = test: Protein binding in human plasma (ultracentrifugation); type: in vitro ADME; details: Human plasma (K2EDTA); 2 μM; 2.5 h at 37 °C
[7] = as above; type: in vitro ADME; details: pH 7.4, Human plasma (K2EDTA)
CYP3A4 = CYP3A4 (Homo sapiens, UniProt P08684); test: CYP450 time-dependent inhibition, CYP3A4 (midazolam and testosterone substrates), pooled human liver microsomes; type: in vitro ADME
CYP2C19 = CYP2C19 (Homo sapiens, UniProt P33261); details: microsomes
in vitro [8] = details: Sprague-Dawley, rat, plasma, pH 7.4
Protocol: (§1) The supernatant was removed and incubated at 37 °C for at least 10 min before use. The pH of each matrix was checked and adjusted to pH 7.4 using 10% phosphoric acid or 1 N sodium hydroxide as necessary.
(§2) Test and control article stock solutions were spiked (1.5 µL) into matrix (0.749 mL) to a final assay concentration of 2 µM and mixed. […] These tubes were sealed and incubated at 37 °C with shaking.
(§3) The quenched samples were mixed briefly by vortexing and stored in a −20 °C freezer.
(§4) Sample plates were stored refrigerated until analysis.
(§5) The column was set to a temperature of 55 °C. […] The instrument was equipped with an electrospray ionization source (500 °C) operated in positive-ion mode.
(§6) Peak area ratios for IS-normalized test article and control article counts were used to calculate the percent remaining relative to the time zero (T0) value. As appropriate, results were plotted and further analyzed to calculate half-life (T1/2) values.
(§7) Mean peak ratios were used to calculate the percent remaining relative to the T0 value: % Remaining at Timex = (mean peak area ratio Tx/mean peak ratio T0) × 100.

[9] = Metabolic stability in beagle dog liver microsomes; type: in vitro ADME; details: for CLint scaled: dog, microsomes, Beagle dog liver microsomes 0.5 mg protein/mL, 2 μM
[10] = Metabolic stability in CD-1 mouse liver microsomes; type: in vitro ADME
[11] = Metabolic stability in Sprague-Dawley rat liver microsomes; type: in vitro ADME; details: for CLint scaled: rat, microsomes, Sprague-Dawley rat liver microsomes 0.5 mg protein/mL, 2 μM
[12] = Protein binding in CD-1 mouse plasma (ultracentrifugation); details: CD-1, mouse, plasma (K2EDTA)
in vitro [13] = details: beagle, dog, plasma, pH 7.4
Protocol: as §1, §2, §3, §4, §5, §6, §7

CYP2D6 = CYP2D6 (Homo sapiens, UniProt P10635); details: microsomes
[14] = read-out: CLint (L/hr/kg) (converted)

CYP2D6, sequence (P10635 whole entry): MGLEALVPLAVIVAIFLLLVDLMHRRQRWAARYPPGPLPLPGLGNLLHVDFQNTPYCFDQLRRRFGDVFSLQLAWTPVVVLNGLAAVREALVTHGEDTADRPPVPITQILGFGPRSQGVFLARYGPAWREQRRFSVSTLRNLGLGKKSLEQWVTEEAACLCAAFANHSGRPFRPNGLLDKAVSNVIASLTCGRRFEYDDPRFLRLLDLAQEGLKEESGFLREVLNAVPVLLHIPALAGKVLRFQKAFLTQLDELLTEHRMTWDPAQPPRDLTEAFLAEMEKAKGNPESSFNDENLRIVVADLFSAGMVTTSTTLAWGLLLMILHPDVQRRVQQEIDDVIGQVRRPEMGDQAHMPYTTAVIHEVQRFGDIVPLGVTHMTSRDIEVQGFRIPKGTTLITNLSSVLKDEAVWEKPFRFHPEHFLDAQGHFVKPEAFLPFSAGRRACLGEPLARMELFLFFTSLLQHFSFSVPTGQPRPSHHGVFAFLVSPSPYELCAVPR
CYP3A4, sequence (P08684 whole entry): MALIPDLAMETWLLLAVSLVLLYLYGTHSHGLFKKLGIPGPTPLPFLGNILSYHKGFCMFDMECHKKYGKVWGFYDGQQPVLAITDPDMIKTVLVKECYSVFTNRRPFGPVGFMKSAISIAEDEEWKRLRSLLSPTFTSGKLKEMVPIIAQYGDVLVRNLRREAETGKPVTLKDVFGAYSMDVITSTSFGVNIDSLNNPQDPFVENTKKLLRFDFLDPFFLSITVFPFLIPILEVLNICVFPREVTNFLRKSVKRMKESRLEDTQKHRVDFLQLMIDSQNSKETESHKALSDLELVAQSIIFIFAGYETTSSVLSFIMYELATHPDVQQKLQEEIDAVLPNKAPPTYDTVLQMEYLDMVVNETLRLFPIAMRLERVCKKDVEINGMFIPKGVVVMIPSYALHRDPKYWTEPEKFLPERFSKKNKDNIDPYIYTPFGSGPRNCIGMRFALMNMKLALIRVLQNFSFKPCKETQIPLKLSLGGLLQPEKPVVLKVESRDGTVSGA
CYP2C19, sequence (P33261 whole entry): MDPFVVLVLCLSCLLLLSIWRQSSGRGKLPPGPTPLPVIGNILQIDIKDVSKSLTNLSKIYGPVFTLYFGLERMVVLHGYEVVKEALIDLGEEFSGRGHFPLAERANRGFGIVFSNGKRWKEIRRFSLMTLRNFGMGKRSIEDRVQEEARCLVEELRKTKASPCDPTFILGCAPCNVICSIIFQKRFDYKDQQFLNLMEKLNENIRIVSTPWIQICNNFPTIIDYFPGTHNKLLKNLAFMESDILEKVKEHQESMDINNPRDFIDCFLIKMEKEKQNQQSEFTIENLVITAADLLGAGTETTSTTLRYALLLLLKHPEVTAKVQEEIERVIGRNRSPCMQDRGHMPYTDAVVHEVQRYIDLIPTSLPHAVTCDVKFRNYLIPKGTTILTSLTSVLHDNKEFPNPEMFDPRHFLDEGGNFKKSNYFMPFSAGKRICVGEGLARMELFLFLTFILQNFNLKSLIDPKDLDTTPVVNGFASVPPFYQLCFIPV

LRKLRKRLLRLVGRQLEEFL [HM-10/10, LRKLRKRLLRLVGRQLEEFL]
CLint scaled [1, 14]: 5.15 L/h/kg | CLint scaled ([1]; read-out: CLint (mL/min/kg)): 5.15 L/h/kg | half-life at 2 µM ([1]; pooled liver microsomes, pH 7.4, Cynomolgus monkey liver microsomes 0.5 mg protein/mL): 21.8 min | remaining at 2 h, 2 µM ([1]; pooled liver microsomes, pH 7.4, Cynomolgus monkey liver microsomes 0.5 mg protein/mL, read-out: % Remaining at 120 min): 0.8% | fraction unbound at 2.5 h, 2 µM ([2]; cynomolgus monkey): 0.736 ± 0.216 | remaining at 2.5 h, 2 µM ([2]; monkey): 25.9% | % Protein Bound Mean ± SD [3]: 26.4 ± 21.6% | % Protein Free Mean ± SD [3]: 73.6 ± 21.6% | % Inhibition at 50 µM No PI + NADPH (CYP2B6): 17.3% | % Inhibition at 50 µM No PI − NADPH (CYP2B6): 25.2% | % Inhibition at 50 µM PI + NADPH (CYP2B6): 28.4% | % Inhibition at 50 µM PI − NADPH (CYP2B6): 42.2% | CLint scaled ([4]; Human liver microsomes 0.5 mg protein/mL, 2 μM): 61.5 mL/min/kg | half-life at 2 µM ([4]; pooled liver microsomes, pH 7.4, Human liver microsomes 0.5 mg protein/mL): 20.3 min | remaining at 2 h, 2 µM ([4]; pooled liver microsomes, pH 7.4, Human liver microsomes 0.5 mg protein/mL, read-out: % Remaining at 120 min): 1.4% | half-life at 2 µM ([5]; cryopreserved hepatocytes): 5.81 min | remaining at 0.5 h, 2 µM ([5]; cryopreserved hepatocytes, read-out: % Remaining at 30 min): 1% | CLint scaled [5, 14]: 75.4 L/h/kg | CLint scaled ([5]; read-out: CLint (mL/min/kg)): 75.6 L/h/kg | half-life at 2 µM [6]: 372 min | % Protein Bound Mean ± SD (human plasma proteins): 79.7% and 79.7 ± 5.5% | % Protein Free Mean ± SD (human plasma proteins): 20.3 ± 5.5% | remaining at 2.5 h, 2 µM ([7]; 37 °C, read-out: % Stability in Matrix (2.5 h)): 88.5% | fraction unbound at 2.5 h, 2 µM ([7]; 2.5 h at 37 °C, read-out: Fu (Unbound Fraction) Mean ± SD): 0.203 ± 0.055 | % Inhibition at 50 µM No PI + NADPH (CYP3A4; Midazolam (3A4)): 6.6% | % Inhibition at 50 µM No PI − NADPH (CYP3A4; Midazolam (3A4)): 19.2% | % Inhibition at 50 µM PI + NADPH (CYP3A4; Midazolam (3A4)): 13.9% | % Inhibition at 50 µM PI − NADPH (CYP3A4; Midazolam (3A4)): 29.5% | % Inhibition at 50 µM No PI + NADPH (CYP3A4; Testosterone (3A4)): 6.9% | % Inhibition at 50 µM No PI − NADPH (CYP3A4; Testosterone (3A4)): −0.7% | % Inhibition at 50 µM PI + NADPH (CYP3A4; Testosterone (3A4)): 11.3% | % Inhibition at 50 µM PI − NADPH (CYP3A4; Testosterone (3A4)): 32.2% | % Inhibition at 50 µM No PI + NADPH (CYP2C19): −26.4% | % Inhibition at 50 µM No PI − NADPH (CYP2C19): −9.4% | % Inhibition at 50 µM PI + NADPH (CYP2C19): −6.0% | % Inhibition at 50 µM PI − NADPH (CYP2C19): 19.9% | half-life at 2 µM (in vitro [8]): 82.5 min | remaining at 2 h, 2 µM (in vitro [8]): 36.3% | CLint scaled [9, 14]: 2.83 L/h/kg | CLint scaled ([9]; read-out: CLint (mL/min/kg)): 2.83 L/h/kg | half-life at 2 µM ([9]; pooled liver microsomes, pH 7.4, Beagle dog liver microsomes 0.5 mg protein/mL): 33 min | remaining at 2 h, 2 µM ([9]; pooled liver microsomes, pH 7.4, Beagle dog liver microsomes 0.5 mg protein/mL, read-out: % Remaining at 120 min): 1.5% | CLint scaled ([10]; CD-1 mouse liver microsomes 0.5 mg protein/mL, 2 μM): 170 mL/min/kg | half-life at 2 µM ([10]; pooled liver microsomes, pH 7.4, CD-1 mouse liver microsomes 0.5 mg protein/mL): 32 min | remaining at 2 h, 2 µM ([10]; pooled liver microsomes, pH 7.4, CD-1 mouse liver microsomes 0.5 mg protein/mL, read-out: % Remaining at 120 min): 0.8% | half-life at 2 µM ([11]; pooled liver microsomes, pH 7.4, Sprague-Dawley rat liver microsomes 0.5 mg protein/mL): 27.7 min | remaining at 2 h, 2 µM ([11]; pooled liver microsomes, pH 7.4, Sprague-Dawley rat liver microsomes 0.5 mg protein/mL, read-out: % Remaining at 120 min): 3.7% | CLint scaled [11, 14]: 6.09 L/h/kg | CLint scaled ([11]; read-out: CLint (mL/min/kg)): 6.06 L/h/kg | remaining at 2.5 h, 2 µM ([12]; pH 7.4): 14.6% | fraction unbound at 2.5 h, 2 µM ([12]; pH 7.4, Fu (Unbound Fraction) Mean ± SD, CD-1 mouse plasma (K2EDTA), 2 μM, 2.5 h at 37 °C): 0.847 ± 0.246 | half-life at 2 µM (in vitro [13]): 54.6 min | remaining at 2 h, 2 µM (in vitro [13]): 24.8% | % Inhibition at 50 µM No PI + NADPH (CYP2D6): 6.0% | % Inhibition at 50 µM No PI − NADPH (CYP2D6): 17.2% | % Inhibition at 50 µM PI + NADPH (CYP2D6): 17.0% | % Inhibition at 50 µM PI − NADPH (CYP2D6): 19.7%
